US20020048549A1, “Radioactive transition metal nitride heterocomplex” (priority 1996, published 2002)
Read-outs that look alike come from different tables or passages of the source.

Experiment: Biodistribution of 99mTc(N)(X)(DTC)+ heterocomplexes in rats
Format: in vivo, male Spraque-Dawley rats (SD rats)
Method: The biodistribution of a ^99mTc nitride heterocomplex represented by the general formula ^99mTc(N)(X)(Y) was investigated as follows: ^99mTc nitride heterocomplexes were synthesized using DTC as a bidentate ligand Y and each of the diphosphine compounds X described below, and the biodistribution in rats of each heterocomplex was investigated.
Before being injected into rats, the contents of the vial were diluted with phosphate buffer (0.1 mol/dm^3, pH=7.06) containing 10% Tween 80 ([…]). The complexes were stable in the solutions and in human plasma for at least 6 hours.
The biodistribution was measured using male Spraque-Dawley rats (SD rats) weighing 200 to 250 g. After 24 hours fasting, the rats were put under intraperitoneal anesthesia and given an injection in the jugular vein. Then, the organs were excised from the rats at different intervals of time, washed and then weighed. In addition, blood samples were collected and then weighed. The data on the biodistribution are expressed as the mean±significant difference of the percentage of radioactivity level per gram of the organ weight based on the dose of radioactivity, (% dose/g). The measurement was carried out using groups of 5 rats each.

## COCCN1CC[P+](c2ccccc2)(c2ccccc2)[99Tc-2]2(#[N])([NH]N(C)C(SC)=[S+]2)[P+](c2ccccc2)(c2ccccc2)CC1 [^99mTc(N)(PNP2)(DTC)^+]
  Bone % dose/g: 0.209 ± 0.01 % dose/g
  Heart % dose/g: 1.399 ± 0.08 % dose/g
  Liver % dose/g: 3.385 ± 0.81 % dose/g
  Spleen % dose/g: 2.739 ± 0.07 % dose/g
0 min after injection
  Blood % dose/g: 3.220 ± 0.45 % dose/g
  Brain % dose/g: 0.120 ± 0.00 % dose/g
  Intestine % dose/g: 0.906 ± 0.03 % dose/g
  Kidney % dose/g: 5.702 ± 0.732 % dose/g
  Lung % dose/g: 3.568 ± 0.94 % dose/g
  Muscle % dose/g: 0.134 ± 0.01 % dose/g
  Stomach % dose/g: 0.752 ± 0.09 % dose/g
2 min after injection
  Blood % dose/g: 1.025 ± 0.02 % dose/g
  Bone % dose/g: 0.265 ± 0.04 % dose/g
  Brain % dose/g: 0.065 ± 0.01 % dose/g
  Heart % dose/g: 0.728 ± 0.04 % dose/g
  Intestine % dose/g: 1.694 ± 0.18 % dose/g
  Kidney % dose/g: 4.941 ± 0.60 % dose/g
  Liver % dose/g: 7.723 ± 0.20 % dose/g
  Lung % dose/g: 2.040 ± 0.234 % dose/g
  Muscle % dose/g: 0.077 ± 0.00 % dose/g
  Spleen % dose/g: 5.018 ± 0.02 % dose/g
  Stomach % dose/g: 0.0603 ± 0.03 % dose/g
10 min after injection
  Blood % dose/g: 0.355 ± 0.03 % dose/g
  Bone % dose/g: 0.268 ± 0.10 % dose/g
  Brain % dose/g: 0.040 ± 0.00 % dose/g
  Heart % dose/g: 0.736 ± 0.12 % dose/g
  Intestine % dose/g: 2.861 ± 0.74 % dose/g
  Kidney % dose/g: 6.910 ± 0.081 % dose/g
  Liver % dose/g: 4.686 ± 0.89 % dose/g
  Lung % dose/g: 1.481 ± 0.10 % dose/g
  Muscle % dose/g: 0.064 ± 0.02 % dose/g
  Spleen % dose/g: 5.334 ± 0.10 % dose/g
  Stomach % dose/g: 0.517 ± 0.16 % dose/g
30 min after injection
  Blood % dose/g: 0.333 ± 0.03 % dose/g
  Bone % dose/g: 0.301 ± 0.03 % dose/g
  Brain % dose/g: 0.020 ± 0.00 % dose/g
  Heart % dose/g: 0.652 ± 0.19 % dose/g
  Intestine % dose/g: 7.254 ± 0.46 % dose/g
  Kidney % dose/g: 7.542 ± 1.410 % dose/g
  Liver % dose/g: 7.341 ± 0.38 % dose/g
  Lung % dose/g: 1.015 ± 0.16 % dose/g
  Muscle % dose/g: 0.103 ± 0.02 % dose/g
  Spleen % dose/g: 5.131 ± 0.59 % dose/g
  Stomach % dose/g: 1.135 ± 0.298 % dose/g
1 hr after injection
  Blood % dose/g: 0.19 ± 0.01 % dose/g
  Bone % dose/g: 0.294 ± 0.02 % dose/g
  Brain % dose/g: 0.025 ± 0.00 % dose/g
  Heart % dose/g: 0.534 ± 0.02 % dose/g
  Intestine % dose/g: 7.644 ± 1.01 % dose/g
  Kidney % dose/g: 6.713 ± 0.83 % dose/g
  Liver % dose/g: 7.436 ± 1.44 % dose/g
  Lung % dose/g: 1.011 ± 0.01 % dose/g
  Muscle % dose/g: 0.075 ± 0.01 % dose/g
  Spleen % dose/g: 5.073 ± 0.01 % dose/g
  Stomach % dose/g: 0.932 ± 0.12 % dose/g
2 hr after injection
  Blood % dose/g: 0.129 ± 0.02 % dose/g
  Bone % dose/g: 0.357 ± 0.08 % dose/g
  Brain % dose/g: 0.025 ± 0.00 % dose/g
  Heart % dose/g: 0.511 ± 0.05 % dose/g
  Intestine % dose/g: 6.442 ± 0.59 % dose/g
  Kidney % dose/g: 6.799 ± 1.348 % dose/g
  Liver % dose/g: 4.061 ± 0.64 % dose/g
  Lung % dose/g: 0.962 ± 0.02 % dose/g
  Muscle % dose/g: 0.102 ± 0.02 % dose/g
  Spleen % dose/g: 5.507 ± 0.84 % dose/g
  Stomach % dose/g: 1.701 ± 0.34 % dose/g
4 hr after injection
  Blood % dose/g: 0.087 ± 0.00 % dose/g
  Bone % dose/g: 0.329 ± 0.01 % dose/g
  Brain % dose/g: 0.018 ± 0.00 % dose/g
  Heart % dose/g: 0.506 ± 0.04 % dose/g
  Intestine % dose/g: 4.054 ± 0.39 % dose/g
  Kidney % dose/g: 7.471 ± 0.03 % dose/g
  Liver % dose/g: 1.784 ± 0.25 % dose/g
  Lung % dose/g: 0.670 ± 0.09 % dose/g
  Muscle % dose/g: 0.08 ± 0.00 % dose/g
  Spleen % dose/g: 5.055 ± 0.02 % dose/g
  Stomach % dose/g: 1.220 ± 0.150 % dose/g
